The term IC50 denotes the concentration that gives 50% inhibition. Higher therefore signals weaker potency.

This is an account of results in patent US10562912B2 (C&C Research Laboratories, priority 2013, dated 2020).

Bounds are passed on as bounds.

Assay type in all cases: cell-based
In one test the target is T1, STAT3 (Homo sapiens, UniProt P40763).
T1 construct: plasmid pSTAT3-TA-luc), which contains a stably operating STAT3 promoter; endogenous in cells
The test is described as follows: STAT3 reporter gene assay (luciferase), LNCaP stable cell line (pSTAT3-TA-luc), IL-6 stimulation. The essentials:
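Cytotoxicity was run on a duplicate plate with CellTiter-Glo, while the other plate gave luciferase read-outs from lysed LNCaP pSTAT3-TA-luc reporter cells. Cells were treated with graded compound concentrations plus IL-6 (10 ng/mL final) for 24–48 h in 3% DCC-FBS medium. Unstimulated and stimulated wells served as negative and positive controls.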
In general terms: A reporter such as luciferase makes a cellular process visible.

The test system of the next test is AGS. In words: Cell growth inhibition assay, stomach cancer cell line AGS. The settings on record: Homo sapiens; AGS stomach cancer cell line, 3,000 cells/well. How it is done: The inhibitory effects of the compounds of the present invention against the growth of cancer cells were evaluated as shown below. The cancer cell lines including stomach cancer cell line (AGS), breast cancer cell lines (MDA-MB-231, MDA-MB-468, and BT-549), prostate cancer cell lines (LNCaP and DU-145), colon cancer cell line (HCT116), ovarian cancer cell line (SW626), liver cancer cell line (Hep3B), kidney cancer cell line (ACHN), lung cancer cell line (NCI-H23) and blood cancer cell lines (HEL92.1.7 and U266) were cultured under the protocol provided by each supplier. A medium supplemented with 10 ng/mL of IL-6 was used for LNCaP, a prostate cancer cell line, when treated with a drug. Each type of cells to be used in experiments were sub-cultured in a 96-well plate by counting the exact number of cells using Tali™ Image-based Cytometer (Life Technologies). In a 96-well plate, AGS, HCT116, and DU-145 were employed with 3,000 cells/well; NCI-H23, SW626, Hep3B, ACHN, BT-549, MDA-MB-231, HEL92.1.7, and U266 were employed with 5,000 cells/well; and LNCaP and MDA-MB-468 were employed with 10,000 cells/well. The cells were treated with the compounds listed in Examples which were diluted in various concentrations. Upon completion of the compounds treatment, AGS, HCT116, SW626, DU145, NCI-H23, Hep3B, ACHN, BT-549, LNCaP, HEL92.1.7, and U266 cells were cultured at 37° C. under 5% CO2 for from 72 to 96 hours, and MDA-MB-231 and MDA-MB-468 cells were cultured at 37° C. in air for from 72 to 96 hours. Subsequently, the cells were observed under microscope and drug precipitation and particular findings were investigated and recorded. And then, the 96-well plate was placed at room temperature for 30 minutes, added with 20 μL/well of CellTiter-Glo solution (Cat No. G7573, Promega) and shaken for 10 minutes, followed by being subjected to the measurement using PHERAstar™ microplate reader (BMG LABTECH) according to the supplier's general luminometer protocol. Wells where only culture liquid added without cell plating were used as a negative control, whereas wells where culture liquid containing 0.1% DMSO instead of the compounds listed in Examples were used as a positive control.

A further test concerns LNCaP. In words: Cell growth inhibition assay, prostate cancer cell line LNCaP (medium with 10 ng/mL IL-6). The settings on record: Homo sapiens, medium supplemented with 10 ng/mL of IL-6, 10,000 cells/well.

T1 sequence (P40763 whole entry): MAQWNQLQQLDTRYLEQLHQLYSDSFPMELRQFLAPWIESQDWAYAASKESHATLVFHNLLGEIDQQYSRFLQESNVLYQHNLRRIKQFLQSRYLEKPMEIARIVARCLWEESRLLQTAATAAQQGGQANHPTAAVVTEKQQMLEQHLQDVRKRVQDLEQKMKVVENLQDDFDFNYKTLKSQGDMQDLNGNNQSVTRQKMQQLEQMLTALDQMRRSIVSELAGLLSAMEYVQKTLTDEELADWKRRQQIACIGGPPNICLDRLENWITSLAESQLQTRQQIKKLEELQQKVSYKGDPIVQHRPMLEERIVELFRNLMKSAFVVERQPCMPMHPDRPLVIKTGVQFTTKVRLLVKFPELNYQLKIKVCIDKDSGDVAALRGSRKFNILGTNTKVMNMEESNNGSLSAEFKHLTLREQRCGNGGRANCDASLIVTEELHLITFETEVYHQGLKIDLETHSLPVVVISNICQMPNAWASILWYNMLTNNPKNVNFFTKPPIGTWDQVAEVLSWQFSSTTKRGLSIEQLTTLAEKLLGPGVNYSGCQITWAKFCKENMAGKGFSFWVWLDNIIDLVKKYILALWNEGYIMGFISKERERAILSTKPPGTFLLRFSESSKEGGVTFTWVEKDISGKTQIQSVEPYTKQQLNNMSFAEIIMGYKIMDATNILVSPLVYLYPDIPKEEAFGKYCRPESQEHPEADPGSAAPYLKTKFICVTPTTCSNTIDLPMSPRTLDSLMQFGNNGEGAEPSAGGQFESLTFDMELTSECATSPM

For `O=C(Nc1cccc(-c2ccc(F)cc2F)c1)c1cc2ccc([N+](=O)[O-])cc2[nH]1` [Example 225, N-(2′,4′-difluoro-[1,1′-biphenyl]-3-yl)-6-nitro-1H-indole-2-carboxamide], the IC50 is over 10 µM against STAT3, over 50 µM in the test with AGS and over 10 µM in the test on LNCaP.
With `O=C(Nc1cccc(-c2ccccc2C(F)(F)F)c1)c1cc2ccc([N+](=O)[O-])cc2[nH]1` [Example 226, 6-nitro-N-(2′-(trifluoromethyl)-[1,1′-biphenyl]-3-yl)-1H-indole-2-carboxamide], the half-inhibitory concentration (IC50) is 6.3 µM on STAT3, 6.9 µM in the test with AGS and over 10 µM in the test on LNCaP.
Regarding `O=C(Nc1cccc(-c2ccccc2C(F)(F)F)c1)c1cc2cc([N+](=O)[O-])ccc2[nH]1` [Example 227, 5-nitro-N-(2′-(trifluoromethyl)-[1,1′-biphenyl]-3-yl)-1H-indole-2-carboxamide], the IC50 is over 10 µM against STAT3, 30 µM in the test with AGS and over 10 µM with LNCaP.
For the compound `Cc1c(C(=O)Nc2cccc(-c3ccccc3C(F)(F)F)c2)[nH]c2ccc([N+](=O)[O-])cc12` [Example 228, 3-methyl-5-nitro-N-(2′-(trifluoromethyl)-[1,1′-biphenyl]-3-yl)-1H-indole-2-carboxamide], the IC50 on STAT3 is over 10 µM; in the test on AGS it was 41.4 µM; with LNCaP, over 10 µM.
Regarding `O=C(Nc1cccc(-c2ccc(F)cc2C(F)(F)F)c1)C1Cc2ccc([N+](=O)[O-])cc2N1` (stereo not drawn) [Example 229, N-(4′-fluoro-2′-(trifluoromethyl)-[1,1′-biphenyl]-3-yl)-6-nitroindoline-2-carboxamide], the IC50 on STAT3 came out at 1.4 µM; in the test on AGS it was 16.1 µM; in the test on LNCaP, 5.4 µM.
Turning to `O=C(Nc1cccc(-c2ccccc2C(F)(F)F)c1)C1Cc2ccc([N+](=O)[O-])cc2N1` (stereo not drawn) [Example 230, 6-nitro-N-(2′-(trifluoromethyl)-[1,1′-biphenyl]-3-yl)indoline-2-carboxamide], the IC50 on STAT3 was found to be 1.1 µM; with AGS, 17.6 µM; with LNCaP, 2.7 µM.
Turning to `O=C(Nc1cccc(-c2ccc(F)cc2F)c1)C1Cc2ccc([N+](=O)[O-])cc2N1` (stereo not drawn) [Example 231, N-(2′,4′-difluoro-[1,1′-biphenyl]-3-yl)-6-nitroindoline-2-carboxamide], the IC50 at STAT3 was 2.9 µM; in the test with AGS, 19.3 µM; with LNCaP, over 10 µM.
In the case of `O=C(Nc1cccc(-c2ccccc2C(F)(F)F)c1)c1nc2ccc([N+](=O)[O-])cc2s1` [Example 232, 6-nitro-N-(2′-(trifluoromethyl)-[1,1′-biphenyl]-3-yl)benzo[d]thiazole-2-carboxamide], the IC50 at STAT3 was over 10 µM; in the test with AGS, 20.5 µM; in the test on LNCaP it was over 10 µM.
Take `O=C(Nc1cccc(-c2ccc(F)cc2F)c1)c1nc2cc([N+](=O)[O-])ccc2[nH]1` [Example 233, N-(2′,4′-difluoro-[1,1′-biphenyl]-3-yl)-5-nitro-1H-benzo[d]imidazole-2-carboxamide]: the IC50 at STAT3 is over 10 µM; in the test on AGS it was over 50 µM; in the test with LNCaP, over 10 µM.
As to `O=C(Nc1cccc(-c2ccccc2C(F)(F)F)c1)c1nc2cc([N+](=O)[O-])ccc2[nH]1` [Example 234, 5-nitro-N-(2′-(trifluoromethyl)-[1,1′-biphenyl]-3-yl)-1H-benzo[d]imidazole-2-carboxamide], the IC50 at STAT3 is over 10 µM; with AGS, 1.6 µM; in the test on LNCaP, 1.56 µM.
On the same counts, the results for `O=C(Nc1cccc(-c2ccc(F)cc2C(F)(F)F)c1)c1nc2cc([N+](=O)[O-])ccc2[nH]1` [Example 235, N-(4′-fluoro-2′-(trifluoromethyl)-[1,1′-biphenyl]-3-yl)-5-nitro-1H-benzo[d]imidazole-2-carboxamide] are over 10 µM, 37 µM and over 10 µM.
With `O=C(Nc1cccc(-c2ccc(F)cc2C(F)(F)F)c1)c1cc2ccc([N+](=O)[O-])cc2[nH]1` [Example 244, N-(4′-fluoro-2′-(trifluoromethyl)-[1,1′-biphenyl]-3-yl)-6-nitro-1H-indole-2-carboxamide], the IC50 against STAT3 was over 10 µM; in the test with AGS, 30.6 µM; in the test on LNCaP, over 10 µM.
Consider `Cn1c(C(=O)Nc2cccc(-c3ccc(F)cc3F)c2)cc2ccc([N+](=O)[O-])cc21` [Example 247, N-(2′,4′-difluoro-[1,1′-biphenyl]-3-yl)-1-methyl-6-nitro-1H-indole-2-carboxamide], for which the IC50 was over 10 µM on STAT3, over 50 µM in the test on AGS and 3.7 µM with LNCaP.
`Cn1c(C(=O)Nc2cccc(-c3ccc(F)cc3F)c2)cc2ccc(NS(C)(=O)=O)cc21` [Example 248, N-(2′,4′-difluoro-[1,1′-biphenyl]-3-yl)-1-methyl-6-(methylsulfonamido)-1H-indole-2-carboxamide]: the IC50 against STAT3 was determined as 6.1 µM; in the test with AGS, 15.7 µM; in the test with LNCaP it was 9.6 µM.
`Cn1c(C(=O)Nc2cccc(-c3ccccc3C(F)(F)F)c2)cc2ccc([N+](=O)[O-])cc21` [Example 249, 1-methyl-6-nitro-N-(2′-(trifluoromethyl)-[1,1′-biphenyl]-3-yl)-1H-indole-2-carboxamide]: the concentration for half-maximal inhibition (IC50) was over 10 µM at STAT3, 8.4 µM with AGS and over 10 µM in the test with LNCaP.
Consider `Cn1c(C(=O)Nc2cccc(-c3ccccc3C(F)(F)F)c2)cc2cc([N+](=O)[O-])ccc21` [Example 250, 1-methyl-5-nitro-N-(2′-(trifluoromethyl)-[1,1′-biphenyl]-3-yl)-1H-indole-2-carboxamide], for which the IC50 at STAT3 is over 10 µM; in the test on AGS, 22 µM; with LNCaP, over 10 µM.
For the compound `Cc1c(C(=O)Nc2cccc(-c3ccccc3C(F)(F)F)c2)n(CCN2CCOCC2)c2ccc([N+](=O)[O-])cc12` [Example 251, 3-methyl-1-(2-morpholinoethyl)-5-nitro-N-(2′-(trifluoromethyl)-[1,1′-biphenyl]-3-yl)-1H-indole-2-carboxamide], the IC50 was over 10 µM on STAT3, 26.7 µM with AGS and over 10 µM in the test with LNCaP.
As for `O=C(Nc1cccc(-c2ccccc2C(F)(F)F)c1)c1cc2ccc([N+](=O)[O-])cc2n1CCN1CCOCC1` [Example 252, 1-(2-morpholinoethyl)-6-nitro-N-(2′-(trifluoromethyl)-[1,1′-biphenyl]-3-yl)-1H-indole-2-carboxamide], the IC50 against STAT3 was over 10 µM; with AGS it was 11.4 µM; in the test with LNCaP, over 10 µM.
Consider `Cn1c(C(=O)Nc2cccc(-c3ccccc3C(F)(F)F)c2)cc2ccc(NS(C)(=O)=O)cc21` [Example 253, 1-methyl-6-(methylsulfonamido)-N-(2′-(trifluoromethyl)-[1,1′-biphenyl]-3-yl)-1H-indole-2-carboxamide], for which the IC50 on STAT3 amounted to 4.7 µM; with AGS it was 7.6 µM; in the test with LNCaP, 8.5 µM.
Regarding `CC(C)(Oc1ccc2cc(C(=O)Nc3cccc(-c4ccc(F)cc4F)c3)[nH]c2c1)C(=O)O` [Example 254, 2-((2-((2′,4′-difluoro-[1,1′-biphenyl]-3-yl)carbamoyl)-1H-indol-6-yl)oxy)-2-methylpropanoic acid], the results for the IC50 on STAT3, in the test with AGS and in the test on LNCaP were over 10 µM, over 50 µM and over 10 µM, respectively.
`CCOC(=O)COc1ccc2cc(C(=O)Nc3cccc(-c4ccc(F)cc4F)c3)[nH]c2c1` [Example 255, ethyl 2-((2-((2′,4′-difluoro-[1,1′-biphenyl]-3-yl)carbamoyl)-1H-indol-6-yl)oxy)acetate]: the values for the IC50 on STAT3, in the test with AGS and in the test with LNCaP were over 10 µM, 18.1 µM and over 10 µM, respectively.
On to `O=C(O)COc1ccc2cc(C(=O)Nc3cccc(-c4ccc(F)cc4F)c3)[nH]c2c1` [Example 256, 2-((2-((2′,4′-difluoro-[1,1′-biphenyl]-3-yl)carbamoyl)-1H-indol-6-yl)oxy)acetic acid], for which the IC50 was over 10 µM at STAT3, over 50 µM with AGS and over 10 µM in the test on LNCaP.
